The results in this text go back to ChEMBL document CHEMBL1250507, “Novel indolylmaleimide acts as GSK-3beta inhibitor in human neural progenitor cells” (Bioorg Med Chem, 2010).

Calls of active or inactive are those of the source. The calls are words filed in the database; no cut-off is given here.

In the first test the target is T1, Glycogen synthase kinase-3 beta (Homo sapiens, UniProt P49841).
Assay: not given
Conditions: ReNcell VM, 3 uM.
Target sequence in this assay (P49841 whole entry, looked up): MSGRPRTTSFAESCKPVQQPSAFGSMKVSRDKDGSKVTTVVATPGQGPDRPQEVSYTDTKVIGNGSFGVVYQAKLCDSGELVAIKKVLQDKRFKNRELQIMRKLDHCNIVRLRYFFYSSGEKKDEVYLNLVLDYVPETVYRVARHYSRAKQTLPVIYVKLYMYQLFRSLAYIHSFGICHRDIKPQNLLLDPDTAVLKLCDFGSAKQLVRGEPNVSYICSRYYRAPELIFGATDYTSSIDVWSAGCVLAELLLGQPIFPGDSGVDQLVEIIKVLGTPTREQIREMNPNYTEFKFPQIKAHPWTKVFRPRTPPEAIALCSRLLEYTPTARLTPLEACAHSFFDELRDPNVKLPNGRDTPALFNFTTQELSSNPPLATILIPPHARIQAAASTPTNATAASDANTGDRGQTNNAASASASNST
On to `Cn1cc(C2=C(c3ccc(Cl)cc3Cl)C(=O)NC2=O)c2ccccc21` [SB-216763], for which the inhibition result was “inactive”.
The same measure, in the same setting: to `Cc1[nH]c2ccccc2c1C1=C(NCCc2ccc(F)cc2)C(=O)N(C)C1=O` belongs “Active”.

The next test concerns the target T1, Glycogen synthase kinase-3 beta. The experiment in a line: Inhibition of GSK3-beta after 30 mins by luminescence assay.
Settings: not given
Target sequence in this assay (P49841 whole entry): as the sequence (P49841 whole entry, looked up) above
Turning to `Cc1[nH]c2ccccc2c1C1=C(NCCc2ccc(F)cc2)C(=O)N(C)C1=O`, it took 53 nM to reach half-maximal inhibition (IC50).

A further test has the same target. The experiment in a line: Inhibition of GSK-3-beta-mediated Wnt signaling in human ReNcell VM cells assessed as increase in accumulation of beta-catenin at 1 uM after 2 hrs by ELISA relative to control.
Settings: not given
(ELISA stands for enzyme-linked immunosorbent assay.)
Target sequence in this assay (P49841 whole entry, looked up): as above
`O=C1Cc2c([nH]c3ccc(Br)cc23)-c2ccccc2N1`: the inhibition was 30%.

For a further test the target is unchanged.
Assay: not given
To be noted: ReNcell VM, 3 uM. The source holds these as a separate data set.
Target sequence in this assay (P49841 whole entry, looked up): as above
`Cn1cc(C2=C(c3ccc(Cl)cc3Cl)C(=O)NC2=O)c2ccccc21` [SB-216763] displayed an inhibition of 55%.

The next test relates to ReNcell VM. Briefly: Antiproliferative activity against human ReNcell VM cells assessed as reduction of cell proliferation at 3 uM after 72 hrs. It is filed as functional, cell-based.
Settings: not given
As for `Cn1cc(C2=C(c3ccc(Cl)cc3Cl)C(=O)NC2=O)c2ccccc21` [SB-216763], the outcome was Active.
Still for that read-out and setting: in the case of `Cc1[nH]c2ccccc2c1C1=C(NCCc2ccc(F)cc2)C(=O)N(C)C1=O` it was “Active”.

The target of another test is T1, Glycogen synthase kinase-3 beta.
Assay: not given
Conditions: ReNcell VM, at 3 µM.
Target sequence in this assay (P49841 whole entry, looked up): as above
For the molecule `Cc1[nH]c2ccccc2c1C1=C(NCCc2ccc(O)cc2)C(=O)N(C)C1=O`, the inhibition result was “inactive”.
As to `Cc1[nH]c2ccccc2c1C1=C(C(=O)N2CCOCC2)C(=O)N(C)C1=O`, the inhibition entry was “inactive”.
`Cn1cc(C2=C(c3ccc(Cl)cc3Cl)C(=O)NC2=O)c2ccccc21` [SB-216763] yielded an inhibition of 50%.
As for `COc1ccc2[nH]cc(C3=C(NCCc4ccc(F)cc4)C(=O)N(C)C3=O)c2c1`, the inhibition entry was “inactive”.
Still for that read-out and setting: to `Cc1[nH]c2ccccc2c1C1=C(NCCc2ccccc2)C(=O)N(C)C1=O` belongs “inactive”; to `COc1ccc(CCNC2=C(c3c(C)[nH]c4ccccc34)C(=O)N(C)C2=O)cc1`, “inactive”.
The same measure, in the same setting: to `Cc1[nH]c2ccccc2c1C1=C(N2CCOCC2)C(=O)N(C)C1=O` belongs “inactive”.
As for `CN1C(=O)C(NCCc2ccc(F)cc2)=C(c2c[nH]c3ccccc23)C1=O`, the inhibition result was “inactive”.
Regarding `CN1C(=O)C(NCCc2ccc(F)cc2)=C(c2c[nH]c3ccc(F)cc23)C1=O`, the inhibition entry is “inactive”.
On the same count and under the same terms, to `Cc1[nH]c2ccccc2c1C1=C(NCCc2ccc(F)cc2)C(=O)N(C)C1=O` belongs 27%.
`CCCCNC1=C(c2c(C)[nH]c3ccccc23)C(=O)N(CCCC)C1=O`: the inhibition entry was “inactive”.
Still for that read-out and setting: in the case of `Cc1[nH]c2ccccc2c1C1=C(N2CCCCC2)C(=O)N(C)C1=O` it was “inactive”.
On the same count and under the same terms, in the case of `CCCCNC1=C(c2c(C)[nH]c3ccccc23)C(=O)N(C)C1=O` it was “inactive”; in that of `Cc1[nH]c2ccccc2c1C1=C(N2CCN(c3ccccc3)CC2)C(=O)N(C)C1=O`, “inactive”; in that of `Cc1[nH]c2ccccc2c1C1=C(C(=O)N2CCN(c3ccccc3)CC2)C(=O)N(C)C1=O`, “inactive”.
Take `CCCCNC(=O)C1=C(c2c(C)[nH]c3ccccc23)C(=O)N(C)C1=O`: the inhibition entry is “inactive”.
Same read-out and setting: to `CCOC(=O)C1=C(c2c(C)[nH]c3ccccc23)C(=O)N(C)C1=O` belongs “inactive”; to `Cc1[nH]c2ccccc2c1C1=C(NCCc2c[nH]c3ccccc23)C(=O)N(C)C1=O`, “inactive”.
Take `CCCCOC(=O)C1=C(c2c(C)[nH]c3ccccc23)C(=O)N(C)C1=O`: the inhibition entry is “inactive”.
Same read-out and setting: in the case of `Cc1[nH]c2ccccc2c1C1=C(NCCc2ccc(F)c(F)c2)C(=O)N(C)C1=O` it was “inactive”; in that of `Cc1[nH]c2ccccc2c1C1=C(C(=O)N2CCCCC2)C(=O)N(C)C1=O`, “inactive”; in that of `CCCCNC(=O)C1=C(c2c(C)[nH]c3ccccc23)C(=O)N(CCCC)C1=O`, “inactive”.
Take `Cc1[nH]c2ccccc2c1C1=C(NCCc2ccc(Cl)cc2)C(=O)N(C)C1=O`: the inhibition entry was “inactive”.

For a further test, the system named is ReNcell VM. Briefly: Cytotoxicity against human ReNcell VM cells assessed as cell viability at 3 uM after 72 hrs.
Settings: not given
It is filed as functional, cell-based.
Consider `Cn1cc(C2=C(c3ccc(Cl)cc3Cl)C(=O)NC2=O)c2ccccc21` [SB-216763], for which the Activity result is “Not toxic”.

Test system in another test: not listed separately
The experiment in a line: Antiproliferative activity against human ReNcell VM cells assessed as growth doubling time at 3 uM measured every 24 hrs. It is filed as functional.
Settings: not given
Regarding `Cn1cc(C2=C(c3ccc(Cl)cc3Cl)C(=O)NC2=O)c2ccccc21` [SB-216763], the Time turned out to be 24.4 h.
Still for that read-out and setting: to `Cc1[nH]c2ccccc2c1C1=C(NCCc2ccc(F)cc2)C(=O)N(C)C1=O` belongs 26.5 h.

In another test the target is T1, Glycogen synthase kinase-3 beta.
Assay: not given
Conditions: ReNcell VM, 3 uM. The source holds these as a separate data set.
Target sequence in this assay (P49841 whole entry, looked up): as above
For `Cn1cc(C2=C(c3ccc(Cl)cc3Cl)C(=O)NC2=O)c2ccccc21` [SB-216763], the residual activity came to 22%.
The molecule `Cc1[nH]c2ccccc2c1C1=C(NCCc2ccc(F)cc2)C(=O)N(C)C1=O` showed a residual activity of 27%.

Test system in the next test: not listed separately
The experiment in a line: Induction of neuronal differentiation in human ReNcell VM cells assessed as beta3-tubulin positive cells after 3 days by FACS analysis relative to control. It is filed as functional.
Settings: not given
In the case of `Cn1cc(C2=C(c3ccc(Cl)cc3Cl)C(=O)NC2=O)c2ccccc21` [SB-216763], the Activity is listed as 3.2%.
In the case of `Cc1[nH]c2ccccc2c1C1=C(NCCc2ccc(F)cc2)C(=O)N(C)C1=O`, the Activity is reported as 3.7%.

The inhibition is how much of the control response was suppressed. The term IC50 denotes the concentration at which inhibition is half-maximal. The term residual activity denotes the share of the control activity or signal that is left under treatment. A lower residual activity goes with a large loss of activity.
